From patent publication US20120213827A1, “PROCESS FOR CONTROLLED CRYSTALLIZATION OF AN ACTIVE PHARMACEUTICAL INGREDIENT FROM SUPERCOOLED LIQUID STATE BY HOT MELT EXTRUSION” (priority 2011, published 2012)

Assay: Particle size analysis of dalcetrapib crystals (Malvern MasterSizer 2000, laser diffraction)
Type: physicochemical
Details: dispersant 0.1N HCl, sonicated 10 minutes
Method: The particle size distribution of dalcetrapib crystals from the bulk API and in the matrix of a hot-melt extruded composition produced according to Example 1 was determined according to the following method:
(§1) A Malvern MasterSizer 2000 was used for particle size measurement. The Fraunhofer optical model employed for analysis. The sample handling unit was a Hydro 2000S sonicator: Elma Model 9331. Sample measurement time was 20,000 snaps. The sample background time was 20,000 snaps. The dispersant media was 0.1N HCl, and the pump/stir speed was 2000 RPM.
Sample preparation was as follows: About 10-15 mg of the sample was weighed in 20 mL scintillation vial and 10 mL of de-ionized 0.1N HCl was added. The sample was vortexed for 15 seconds and then sonicated for 10 minutes @ 100% power.
The particle size distribution of dalcetrapib crystals in the matrices of hot-melt extruded compositions produced according to Example 5 was determined according to the following method:
as §1, with “MasterSizer®” for “MasterSizer”, “Fraunhofer®” for “Fraunhofer”, “RPM” for “RPM.”
Sample preparation was as follows: About 10-15 mg of the sample was weighed in a 20 mL scintillation vial and 10 mL of de-ionized 0.1N HCl was added. The sample was vortexed for 15 seconds and then sonicated for 10 minutes at 100% power.

CCC(CC)CC1(C(=O)Nc2ccccc2SC(=O)C(C)C)CCCCC1 [bulk dalcetrapib, dalcetrapib]
mean particle diameter D(0.1): 1.493 μm
mean particle diameter D(0.5): 12.317 μm
mean particle diameter D(0.9): 28.828 μm
